We go through 1 compound from patent US12110287B2, “Heterocyclic derivatives as Nav1.7 and Nav1.8 blockers” (RaQualia Pharma Inc., priority 2018, dated 2024).

Format in all cases: cell-based
The target in one assay is Nav1.7 (Homo sapiens, UniProt Q15858). The assay is described as follows: EFS-FRET assay. On the set-up: expressed in transfected cells; host or cells: CHO (Chinese hamster ovary) cells. The note with it: CHO cells expressing human Nav1.7 channels, read-out: IC50 against Nav1.7. As to the method:
This screen is used to determine the effects of compounds on human Nav1.7 channels, utilizing electrical field stimulation (EFS) system in 96-well plate format on FDSS (Hamamatsu Photonics) platform. The changes of membrane potential are monitored with FRET dye pair, DiSBAC2(3) and PTS18.
CHO (Chinese hamster ovary) cells expressing human Nav1.7 channels are grown in T225 flasks, in a 5% CO2 humidified incubator to about 80% confluence. Media composition consists of HAM/F12 with Glutamax I, 10% FCS, 100 units/mF penicillin and 100 microgram/mF hygromycin.
• Seed each cell lines (1×10^5 cells/well) into 96-well plates prior to experimentation. • Incubate at 37° C. in 5% CO2 for 24 hours. • Wash each well with assay buffer (140 mM NaCl, 4.5 mM KCl, 10 mM D-Glucose, 2 mM CaCl2, 1 mM MgCl2, 10 mM HEPES, pH 7.4 adjusted with NaOH) twice. • Add 1st loading solution containing 10 microM PTS18 and 0.06% Pluronic F-127 in assay buffer. • Incubate the plate at rt in dark for 1 hour. • Remove 1st loading solution and add 2nd loading solution containing 12.5 microM DiSBAC2(3), 1.25 mM Xylene Fast Yellow and 0.0075% Pluronic F-127 in assay buffer. • Place the plate under the dark at rt for 25 minutes. • Add compound solutions into the assay plate. • Set the assay plate in FDSS and place an EFS device on the plate. • Measure EFS-induced fluorescent response by FDSS.
The data are analyzed and reported as normalized ratios of intensities measured at […]. The process of calculating these ratios is performed as follows:
This analysis is performed using a computerized specific program designed for FDSS generated data. Fluorescence ratio values are plotted using XLfit to determine an IC50 value for each compound.

In a further assay the target is T1, human Nav1.5 channels (Homo sapiens, UniProt Q14524).
T1 construct: expressed in transfected cells; host or cells: HEK293 cells
The experiment in a line: FRET assay (FDSS membrane potential). The note with it: HEK293 cells expressing human Nav1.5 channels, read-out: activity (IC50) against Nav1.5. As to the method:
(§1) This screen is used to determine the effects of compounds on human Nav1.8, and human Nav1.5 channels, utilizing the cell imaging technology by Hamamatsu Photonics's Functional Drug Screening System (FDSS). The changes of membrane potential are monitored with fluorescent membrane potential dye pair, DiSBAC2(3) and CC2-DMPE, using FRET technology.
(§2) HEK293 cells expressing human Nav1.8 channels or human Nav1.5 channels are grown in T225 flasks, in a 5% CO2 humidified incubator to about 80% confluence. […]
(§3) The data is analyzed and reported as normalized ratios of intensities measured in the 465 nm and 575 nm channels. The process of calculating these ratios is performed as follows: FR=(FI465 Max/FI575 Min)−(FI465B/FI575B) [Math.2] • “FR”=fluorescence ratio • “FI465B”=the mean of fluorescence intensity as baseline (before Na^+ ligand addition) at 465 nm • “FI575B”=the mean of fluorescence intensity as baseline (before Na^+ ligand addition) at 575 nm • “FI465Max”=maximum fluorescence intensity at 465 nm after Na^+ stimulation • “FI575Min”=minimum fluorescence intensity at 575 nm after Na^+ stimulation Inhibition (%)=100−(FR of each well)−(median FR in positive controls)/(median FR in negative controls)−(median FR in positive controls)×100 [Math.3] […]

The target of the next assay is T2, human Nav1.8 channels (Homo sapiens, UniProt Q9Y5Y9).
T2 construct: expressed in transfected cells; host or cells: HEK293 cells
The assay is described as follows: FRET assay (FDSS membrane potential). The note with it: HEK293 cells expressing human Nav1.8 channels, read-out: IC50 against Nav1.8. The protocol:
as §1, §2, §3

T1 sequence (Q14524 whole entry): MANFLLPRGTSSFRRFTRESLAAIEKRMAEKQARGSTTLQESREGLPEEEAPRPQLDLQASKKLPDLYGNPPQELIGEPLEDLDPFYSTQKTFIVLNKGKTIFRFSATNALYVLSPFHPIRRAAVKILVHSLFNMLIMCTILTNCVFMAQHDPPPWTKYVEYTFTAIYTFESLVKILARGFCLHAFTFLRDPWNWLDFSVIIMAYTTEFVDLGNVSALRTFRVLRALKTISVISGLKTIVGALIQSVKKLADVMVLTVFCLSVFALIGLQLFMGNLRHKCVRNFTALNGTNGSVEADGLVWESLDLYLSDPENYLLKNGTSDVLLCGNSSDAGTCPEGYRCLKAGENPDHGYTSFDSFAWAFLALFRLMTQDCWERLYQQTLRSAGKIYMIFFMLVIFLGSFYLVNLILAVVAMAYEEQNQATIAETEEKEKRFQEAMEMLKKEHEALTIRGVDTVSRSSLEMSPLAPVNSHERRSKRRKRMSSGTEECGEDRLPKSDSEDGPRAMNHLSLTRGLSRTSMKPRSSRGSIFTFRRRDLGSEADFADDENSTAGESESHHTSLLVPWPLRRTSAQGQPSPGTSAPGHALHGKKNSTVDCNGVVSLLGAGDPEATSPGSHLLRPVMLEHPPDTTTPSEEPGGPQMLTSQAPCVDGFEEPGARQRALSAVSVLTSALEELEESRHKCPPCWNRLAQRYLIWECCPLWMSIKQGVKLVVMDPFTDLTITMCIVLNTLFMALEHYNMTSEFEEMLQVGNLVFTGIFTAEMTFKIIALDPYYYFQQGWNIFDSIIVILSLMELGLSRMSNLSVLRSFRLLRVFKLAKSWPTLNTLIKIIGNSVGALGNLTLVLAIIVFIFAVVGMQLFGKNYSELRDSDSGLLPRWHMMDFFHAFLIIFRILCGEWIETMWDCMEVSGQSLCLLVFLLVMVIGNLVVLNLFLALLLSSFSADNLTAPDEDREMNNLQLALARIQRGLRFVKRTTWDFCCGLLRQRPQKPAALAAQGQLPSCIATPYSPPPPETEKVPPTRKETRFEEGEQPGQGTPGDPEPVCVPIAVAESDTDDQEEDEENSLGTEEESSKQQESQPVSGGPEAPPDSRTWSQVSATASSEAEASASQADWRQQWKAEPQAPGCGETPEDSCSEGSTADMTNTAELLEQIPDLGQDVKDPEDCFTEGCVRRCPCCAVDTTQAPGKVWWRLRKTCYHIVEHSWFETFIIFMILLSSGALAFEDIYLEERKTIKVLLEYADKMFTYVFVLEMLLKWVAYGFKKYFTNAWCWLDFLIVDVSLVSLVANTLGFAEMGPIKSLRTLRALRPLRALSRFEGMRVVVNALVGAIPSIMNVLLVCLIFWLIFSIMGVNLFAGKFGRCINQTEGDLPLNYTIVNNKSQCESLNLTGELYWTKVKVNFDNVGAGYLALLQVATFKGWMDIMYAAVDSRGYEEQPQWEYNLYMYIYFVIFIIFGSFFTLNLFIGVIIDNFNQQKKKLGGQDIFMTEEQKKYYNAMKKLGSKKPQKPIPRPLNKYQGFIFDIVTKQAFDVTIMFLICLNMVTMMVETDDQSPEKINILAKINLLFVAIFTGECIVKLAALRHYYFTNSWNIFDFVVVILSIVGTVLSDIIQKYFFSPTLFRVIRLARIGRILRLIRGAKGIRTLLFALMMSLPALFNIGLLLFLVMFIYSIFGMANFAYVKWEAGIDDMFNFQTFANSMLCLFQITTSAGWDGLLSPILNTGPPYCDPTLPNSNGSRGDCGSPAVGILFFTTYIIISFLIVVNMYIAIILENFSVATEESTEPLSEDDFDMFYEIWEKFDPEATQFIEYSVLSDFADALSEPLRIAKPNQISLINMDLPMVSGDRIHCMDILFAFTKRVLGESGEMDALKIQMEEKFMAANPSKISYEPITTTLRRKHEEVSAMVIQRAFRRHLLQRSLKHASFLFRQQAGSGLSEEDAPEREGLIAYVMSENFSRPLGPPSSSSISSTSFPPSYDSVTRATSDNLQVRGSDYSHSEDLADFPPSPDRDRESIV
Chain of Nav1.7 (Q15858 whole entry): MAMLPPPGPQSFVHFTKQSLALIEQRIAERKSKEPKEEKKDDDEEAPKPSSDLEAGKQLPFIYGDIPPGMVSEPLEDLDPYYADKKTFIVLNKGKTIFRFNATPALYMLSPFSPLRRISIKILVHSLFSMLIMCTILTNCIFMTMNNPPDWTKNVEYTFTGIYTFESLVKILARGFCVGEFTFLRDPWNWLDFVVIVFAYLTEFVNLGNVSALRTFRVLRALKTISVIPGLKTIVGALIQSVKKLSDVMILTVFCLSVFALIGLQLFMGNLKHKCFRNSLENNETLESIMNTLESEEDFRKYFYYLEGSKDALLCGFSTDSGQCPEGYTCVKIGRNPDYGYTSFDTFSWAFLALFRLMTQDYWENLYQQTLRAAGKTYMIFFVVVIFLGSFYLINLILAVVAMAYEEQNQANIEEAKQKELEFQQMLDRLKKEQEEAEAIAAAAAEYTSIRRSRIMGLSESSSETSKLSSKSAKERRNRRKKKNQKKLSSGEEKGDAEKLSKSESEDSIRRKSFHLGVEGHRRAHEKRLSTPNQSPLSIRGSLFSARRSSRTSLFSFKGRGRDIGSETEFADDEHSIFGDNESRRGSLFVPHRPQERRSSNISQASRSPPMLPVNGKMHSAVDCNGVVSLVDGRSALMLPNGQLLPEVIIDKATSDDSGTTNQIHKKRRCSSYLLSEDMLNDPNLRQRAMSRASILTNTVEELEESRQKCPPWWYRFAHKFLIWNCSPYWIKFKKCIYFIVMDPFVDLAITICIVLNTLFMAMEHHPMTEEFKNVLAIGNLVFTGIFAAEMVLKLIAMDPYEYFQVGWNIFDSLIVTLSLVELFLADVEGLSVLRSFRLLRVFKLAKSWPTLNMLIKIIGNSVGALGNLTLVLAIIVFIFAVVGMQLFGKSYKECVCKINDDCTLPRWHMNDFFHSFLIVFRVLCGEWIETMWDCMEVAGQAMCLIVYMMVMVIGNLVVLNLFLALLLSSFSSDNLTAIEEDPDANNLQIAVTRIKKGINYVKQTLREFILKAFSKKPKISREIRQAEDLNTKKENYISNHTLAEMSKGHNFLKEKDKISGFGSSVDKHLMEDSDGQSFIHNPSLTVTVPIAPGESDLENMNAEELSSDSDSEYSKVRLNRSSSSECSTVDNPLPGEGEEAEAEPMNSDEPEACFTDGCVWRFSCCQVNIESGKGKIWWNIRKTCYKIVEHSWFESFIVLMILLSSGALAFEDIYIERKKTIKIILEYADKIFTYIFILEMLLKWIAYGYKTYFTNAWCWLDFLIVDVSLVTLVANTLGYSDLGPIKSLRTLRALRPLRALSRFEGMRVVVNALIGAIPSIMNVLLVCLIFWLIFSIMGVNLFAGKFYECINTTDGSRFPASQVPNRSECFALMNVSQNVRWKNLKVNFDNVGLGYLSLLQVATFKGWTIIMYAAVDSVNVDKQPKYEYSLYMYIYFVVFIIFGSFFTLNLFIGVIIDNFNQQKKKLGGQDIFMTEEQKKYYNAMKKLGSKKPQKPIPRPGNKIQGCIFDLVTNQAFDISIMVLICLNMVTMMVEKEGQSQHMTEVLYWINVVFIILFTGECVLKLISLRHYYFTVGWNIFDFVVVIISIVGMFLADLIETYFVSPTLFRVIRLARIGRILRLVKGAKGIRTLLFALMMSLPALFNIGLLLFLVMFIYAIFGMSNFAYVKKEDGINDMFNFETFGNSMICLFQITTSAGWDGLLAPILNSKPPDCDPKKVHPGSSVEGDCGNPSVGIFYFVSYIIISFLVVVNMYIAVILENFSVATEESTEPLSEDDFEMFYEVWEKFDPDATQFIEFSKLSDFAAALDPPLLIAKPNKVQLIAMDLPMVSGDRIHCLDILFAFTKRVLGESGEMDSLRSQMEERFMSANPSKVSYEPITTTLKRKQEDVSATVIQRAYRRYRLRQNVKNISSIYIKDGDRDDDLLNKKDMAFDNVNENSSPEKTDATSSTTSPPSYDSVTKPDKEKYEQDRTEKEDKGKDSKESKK

Turning to `O=C(N[C@@H]1CCCN(c2ncc(C(F)(F)F)cc2Cl)C1)c1ccnc(NC(=O)C2CC2)c1` [Example 7], the figures for the IC50 at Nav1.7, on human Nav1.5 channels and on human Nav1.8 channels were under 500 nM, over 30 µM and 2000 nM, respectively.

The term IC50 denotes the concentration at which inhibition is half-maximal.
